Data from US6194143A, “Substrates for human cytomegalovirus protease” (Boehringer Ingelheim (Canada) Ltd., priority 1998, dated 2001).
Square brackets hold non-standard residues; d marks the D form. Peptide text beside a SMILES is read from it. * marks the point of attachment. Tyr(3-NO2) = N[C@@H](Cc1ccc(O)c([N+](=O)[O-])c1)C(=O)O; AMC = Cc1cc(=O)oc2cc(N*)ccc12; Tle = CC(C)(C)[C@H](N)C(=O)O; 2Abz = Nc1ccccc1C(=O)O

How the values were obtained:
[1] = biological target: T1, HCMV protease (Human cytomegalovirus, UniProt P16753); assay: Mode of inhibition by Dixon-plot analysis with substrate 2; type: biochemical; details: Dixon-plot of initial rate of hydrolysis at different substrate 2 and inhibitor concentrations; substrate 0.4 to 2.5 Km
T1 construct: UL80 gene from HCMV strain AD169, aa 1-256; made in house
Text: FIG. 1 illustrates the inhibitory effect of a peptide inhibitor on HCMV protease at various concentrations of an improved substrate of this application.
The convenient use of fluorescence in this experiment was possible since a range of substrate concentrations from 0.4 to 2.5 Km was permitted. Substrate 1 could not be used in this application since its Km value is well above the inner filter limit.

[2] = biological target: T1, HCMV protease; type: biochemical; details: for Km / kcat / kcat/KM (specificity constant): 200-500 nM HCMV protease, determined by HPLC
Experimental: (§1) Preparation of recombinant wild-type HCMV protease PCR amplified HCMV protease gene from genomic DNA (UL80 gene from HCMV strain AD169, aa 1-256) was cloned in the NdeI/BamHl restriction sites of the plasmid vector pET-17b and expressed in Escherichia Coli strain BL21(DE3)pLYSs. Following expression by induction with IPTG, cells were harvested and resuspended in lysis buffer (50 mM Tris/HCl pH 8.0, 1 mM EDTA, 1 mM DTT, 25 mM NaCl, and 1 mM PMSF) and sonicated for complete lysis and DNA breakage. Protease inclusion bodies were harvested by centrifugation. The harvested material was washed twice in lysis buffer containing 0.1% nonaethylene glycol octylphenyl ether (NP-40, Sigma Chemical Co.). Solubilization and denaturation of the harvested material were performed by resuspending the inclusion bodies in 100 mM Tris/HCl pH 8.0, 1 mM EDTA, 100 mM DTT, 50 mM NaCl, and 7 M urea and incubating at 37° C. for 2 h. After centrifugation to eliminate insoluble matter, the supernatant was extensively dialyzed in 50 mM MES pH 5.0, 0.1 mM EDTA, 10 mM DTT, and 7 M urea for cation exchange chromatography on Resource S column. The resulting pool of protease-containing fractions was then dialyzed in 25 mM Tris/HCl pH 7.8, 1 mM EDTA, and 1 M urea and diluted to ≈100 μg/ml to which 0.2 mM oxidized glutathione and 2 mM reduced glutathione were added. Incubation was performed overnight at 4° C. with gentle shaking and renaturation was then completed by extensive dialysis in 25 mM Tris/HCl pH 7.8, 1 mM EDTA, 1 mM DTT, and 100 mM NaCl followed by dialysis in storing buffer (20 mM acetate pH 5.0, 0.1 mM EDTA, 1 mM DTT, and 50 mM NaCl) before concentration of the sample to give the desired protease.
(§2) Stock solutions (10 mM) in DMSO of the compounds prepared in examples 2, 3, 4, 5 and 6 were stored at 4° C. […] Aliquoted samples of HCMV protease 50 μM (1.4 mg/ml) were kept at -80° C. in storing buffer without detectable loss of activity over an extended period of more than a year. The calculated molecular mass of wild-type HCMV protease was 28042 Da. The concentration of enzyme on which the calculations of the turnover number, kcat, and the specificity constant, kcat /Km, were derived was expressed in terms of total monomer concentration.
HPLC analysis. Specificity constant, kcat /Km, and individual parameters kcat & Km for the peptide substrate of Example 2 were determined by HPLC monitoring of the initial rate of appearance of the N-terminus cleavage product at various substrate concentrations. Incubation buffer contained 50 mM Tris/HCl pH 8, 0.5 M Na2 SO4, 50 mM NaCl, 0.1 mM EDTA, 1 mM TCEP, 3% DMSO v/v, & 0.05% w/v casein to which 20-500 μM substrate was added. Following equilibration at 30° C., the reactions were initiated by addition of 50 nM HCMV protease (total monomer concentration) from a 2.5 μM stock solution in assay buffer and quenched at regular intervals with 1% TFA up to ≈25% total hydrolysis. The aliquots were injected on a C8 reversed-phase column using a linear gradient of acetonitrile in aqueous 3mM SDS containing 0.05% H3 PO4 (22 to 28% acetonitrile at 2 min, to 30% at 4 min, to 50% at 6 min at a constant flow rate of 4 ml/min). A calibration curve of the N-terminus product was used to estimate the extent of the conversion (retention time=2.7 min). The data was fitted to the non-linear regression analysis of the Michaelis-Menten equation by the kinetic software GRAFIT (Grafit, Erithacus Software Ltd, 1989-1992, Version 3.0, Leatherbarrow, R. J., London, U.K.). A similar protocol was adopted for the peptide substrates of Examples 5 and 6. In this case the enzyme concentration used was respectively 500 nM and 200 nM. The HPLC gradient was 25 to 38% acetonitrile at 11 min, to 100% at 13 min at a constant flow rate of 4 ml/min.

[3] = Solubility of substrate; type: physicochemical
[4] = Stability of 10 mM DMSO stock solutions at 4° C.; type: physicochemical; details: 10 mM in DMSO, stored at 4° C.
Experimental: as §2

[5] = biological target: T1, HCMV protease; assay: HCMV protease fluorometric assay of substrate cleavage; type: biochemical; details: for kcat/Km, fold greater than for the substrate of formula 1 (unoptimized substrate): compared with substrate of formula 1
Experimental: as §1
Stock solutions (10 mM) in DMSO of the compounds prepared in examples 2, 3, 4, 5 and 6 were stored at 4° C. […] Aliquoted samples of HCMV protease 50 μM (1.4 mg/ml) were kept at -80° C. in storing buffer without detectable loss of activity over an extended period of more than a year. The calculated molecular mass of wild-type HCMV protease was 28042 Da. […]

[6] = test system: HCMV protease; details: prior literature reports; cited from earlier work
[7] = biological target: T1, HCMV protease; assay: Inhibitory activity on HCMV protease (IC50); type: biochemical
Experimental: The substrate of formula 1 was used to implement a 100 nM HCMV protease assay for routine screening of inhibitors. However rapid progress in the structure-activity relationship (SAR) studies eventually required a reduction of the enzyme concentration in order to differentiate between potent compounds. Indeed an IC50 value cannot be lower than half the enzyme concentration in the assay. Reducing the enzyme therefore permits accurate determination of the potency of active inhibitors.
The large reduction in Km was responsible for this substantial increase in activity and reflected the anticipated improvement in binding. The inhibitory activity of the N-terminal product ABz-Tbg-Tbg-Asn(Me)2 -Ala-OH was determined to establish if it could interfere with the course of the reaction.

T1 sequence (P16753 1-256): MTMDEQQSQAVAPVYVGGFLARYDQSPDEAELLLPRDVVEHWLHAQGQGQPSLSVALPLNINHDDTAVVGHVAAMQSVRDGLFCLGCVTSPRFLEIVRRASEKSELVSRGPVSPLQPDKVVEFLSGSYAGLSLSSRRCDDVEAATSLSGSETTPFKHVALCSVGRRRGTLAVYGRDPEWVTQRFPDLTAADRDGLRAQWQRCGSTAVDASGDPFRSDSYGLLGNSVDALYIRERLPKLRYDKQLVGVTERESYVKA

## CC(NC(=O)[C@H](CC(=O)N(C)C)NC(=O)[C@@H](NC(=O)CC(C)(C)C)C(C)(C)C)C(=O)C(=O)NCc1ccccc1 (stereo partly drawn) [DATbg-Tbg-Asn(Me2)-Ala-CONHCH2Ph]
[1]
  mode of inhibition: competitive

## d-Biotin-Arg-Gly-Val-Val-Asn-Ala-Ser-Ser-Arg-Leu-Ala-Tyr-NH2 [Substrate 4]
[2]
  Km: 422 µM
  kcat: 0.086 s⁻¹
  kcat/KM (specificity constant): 205 M⁻¹ s⁻¹

## CC(C)C[C@H](NC(=O)[C@H](CCCNC(=N)N)NC(=O)[C@H](CO)NC(=O)[C@H](CO)NC(=O)[C@H](C)NC(=O)[C@H](CC(N)=O)NC(=O)[C@@H](NC(=O)[C@@H](NC(=O)c1ccccc1N)C(C)C)C(C)C)C(=O)N[C@@H](Cc1ccc(O)c([N+](=O)[O-])c1)C(=O)N[C@@H](CCCNC(=N)N)C(=O)O [Substrate 1] (H-[2Abz]VVNASSRL[Tyr(3-NO2)]R-OH)
[3]
  solubility: limited solubility
[4]
  stability of compound in stock solution: stable for several weeks

## CC(=O)N[C@H](C(=O)N[C@H](C(=O)N[C@@H](CC(=O)N(C)C)C(=O)N[C@@H](C)C(=O)Nc1ccc2c(C)cc(=O)oc2c1)C(C)(C)C)C(C)(C)C [Substrate 3, N-Acetyl-Tbg-Tbg-Asn(Me)2 -Ala-AMC] (Ac-[Tle][Tle]D(NMe2)A-{AMC})
[5]
  kcat/Km, fold greater than for the substrate of formula 1 (unoptimized substrate): 10 fold
[5]; compared with substrate of formula 2
  kcat/Km, fold smaller than the substrate of formula 2: 6 fold
[4]
  stability of compound in stock solution: stable for several weeks

## ABz-GVVNA-SSRLAY(3-NO2)G
[6]
  Km: 134 µM
  kcat: 0.37 s⁻¹
  kcat/KM: 2750 M⁻¹ s⁻¹

## CC(C)C[C@H](NC(=O)[C@H](CCCNC(=N)N)NC(=O)[C@H](CO)NC(=O)[C@H](CO)NC(=O)[C@H](C)NC(=O)[C@H](CC(=O)N(C)C)NC(=O)[C@@H](NC(=O)[C@@H](NC(=O)c1ccccc1N)C(C)(C)C)C(C)(C)C)C(=O)N[C@@H](Cc1ccc(O)c([N+](=O)[O-])c1)C(=O)N[C@@H](CCCNC(=N)N)C(=O)O [Substrate 2, ABz-Tbg-Tbg-Asn(Me)2 -Ala-Ser-Ser-Arg-Leu-Tyr(3-NO2)-Arg-OH] (H-[2Abz][Tle][Tle]D(NMe2)ASSRL[Tyr(3-NO2)]R-OH)
[5]
  kcat/Km, fold greater than for the substrate of formula 1 (unoptimized substrate): 60 fold
[4]
  stability of compound in stock solution: stable for several weeks

## Y(3-NO2)GVVNA-SSRLA-ABz-K
[6]
  kcat/KM: 3167 M⁻¹ s⁻¹

## C[C@H](NC(=O)[C@H](CC(=O)N(C)C)NC(=O)[C@@H](NC(=O)[C@@H](NC(=O)c1ccccc1N)C(C)(C)C)C(C)(C)C)C(=O)O [ABz-Tbg-Tbg-Asn(Me)2 -Ala-OH] (H-[2Abz][Tle][Tle]D(NMe2)A-OH)
[7]
  IC50: > 75 µM

## DABCYL-RRVVNA-S-Aba-RLD(EDANS)-NH2
[6]
  Km: 3 µM

## d-Biotin-Arg-Gly-Tbg-Tbg-Asn (Me) 2 -Ala-Ser-Ser-Arg-Leu-Ala-Tyr-NH2 [Substrate 5]
[2]
  Km: 19 µM
  kcat: 0.045 s⁻¹
  kcat/KM (specificity constant): 2370 M⁻¹ s⁻¹

## DABCYL-RGVVNA-SSRLA-EDANS
[6]
  kcat/KM: 796 M⁻¹ s⁻¹

## d-Biotin-Arg-Gly-Tbg-Tbg-Asn(Me)2 -Ala-Ser-Ser-Arg-Leu-Ala-Tyr(^125,)-NH2 [Substrate 13a]
[2]
  Km: 19 µM
  kcat: 0.045 s⁻¹
  kcat/KM (specificity constant): 2370 M⁻¹ s⁻¹
[2]; as measured by HPLC
  kcat/KM, fold greater compared to the substrate of formula 12a: 12 fold
